Literature values as cited in US20140112913A1, “METHODS OF PROGNOSING AND ADMINISTERING TREATMENT FOR INFLAMMATORY DISORDERS” (Genqual Corporation, priority 2011, published 2014).

Settings: treatment of rheumatoid arthritis; patients who failed adequate treatment with other approved therapies

Which “failure rate due to side effects or lack of efficacy” value does the source give for “Actemra: anti-IL-6 humanized mAb against soluble and cellular IL-6 receptor” here?
The value was “around one-third”.
